Structures can show the parent of a compound that is named as a salt.
Tests used:
human factor XIa = target: T1, human factor XIa (Homo sapiens, UniProt P03951); assay: Measurement of FXIa inhibition (fluorogenic peptide substrate Boc-Glu(OBzl)-Ala-Arg-AMC); format: biochemical; settings: factor XIa from Kordia, 15 min preincubation, 30 min at 22° C., fluorescence
T1 construct: purchased Kordia
Method in brief: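 Released AMC fluorescence (360/460 nm) read after 30 min at 22 °C. The reaction was started with Boc-Glu(OBzl)-Ala-Arg-AMC (10 μM stock) after a 15 min preincubation of the enzyme (0.45 nM stock) with compound (final 50 μM to 0.00013 μM).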

human and animal plasma = assay: Determination of anticoagulatory activity: activated partial thromboplastin time (aPTT) in plasma; settings: concentration of test substance which brings about a 1.5-fold extension of the aPTT; plasma species not given
Method in brief: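 Citrated plasma (1:9, 0.11 M citrate; 4000 g, 15 min) from human or animal blood incubated with test compound and cephalin/kaolin PTT reagent for 3 min at 37° C.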

T1 sequence (P03951 388-625 limits assumed): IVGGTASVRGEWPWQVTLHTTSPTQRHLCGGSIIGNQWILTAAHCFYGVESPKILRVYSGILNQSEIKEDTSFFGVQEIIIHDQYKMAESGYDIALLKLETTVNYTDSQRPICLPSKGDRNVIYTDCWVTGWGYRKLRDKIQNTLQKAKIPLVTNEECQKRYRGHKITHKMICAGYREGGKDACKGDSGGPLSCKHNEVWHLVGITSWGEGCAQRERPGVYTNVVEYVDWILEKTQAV
T1 sequence (P03951 19-387 partner limits assumed): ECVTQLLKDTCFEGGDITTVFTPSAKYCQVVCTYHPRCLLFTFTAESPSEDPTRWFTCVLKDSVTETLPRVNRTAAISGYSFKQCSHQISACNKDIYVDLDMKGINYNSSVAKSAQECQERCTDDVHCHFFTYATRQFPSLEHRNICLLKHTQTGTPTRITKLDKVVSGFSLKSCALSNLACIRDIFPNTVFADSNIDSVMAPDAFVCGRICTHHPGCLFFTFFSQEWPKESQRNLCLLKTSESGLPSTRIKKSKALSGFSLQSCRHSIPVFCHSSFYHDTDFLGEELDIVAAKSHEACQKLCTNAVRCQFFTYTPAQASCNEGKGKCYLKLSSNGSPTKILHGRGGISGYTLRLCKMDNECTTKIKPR

Row | SMILES | IC50 (human factor XIa) [nM] | aPTT (human and animal plasma) [µmol/L]
1 | NC[C@H]1CC[C@H](C(=O)N[C@@H](Cc2ccc(-c3ccc(C(=O)N[C@@H]4CCCNC4=O)c(F)c3)cc2)C(=O)Nc2ccc(-c3n[nH]c(C(F)(F)C(F)(F)C(=O)O)n3)cc2)CC1 [Example 111, 3-[3-(4-{[(2S)-2-({[trans-4-(Aminomethyl)cyclohexyl]carbonyl}amino)-3-(3′-fluoro-4′-{[(3R)-2-oxopiperidin-3-yl]carbamoyl}biphenyl-4-yl)propanoyl]amino}phenyl)-1H-1,2,4-triazol-5-yl]-2,2,3,3-tetrafluoropropanoic acid hydrochloride] | 1 | 0.13
2 | NC[C@H]1CC[C@H](C(=O)N[C@@H](Cc2ccc(-c3ccc(C(=O)N[C@H]4CC[C@H](O)CC4)c(F)c3)cc2)C(=O)Nc2ccc(-c3n[nH]c(C(F)(F)C(F)(F)C(=O)O)n3)cc2)CC1 [Example 112, 3-[3-(4-{[(2S)-2-({[trans-4-(Aminomethyl)cyclohexyl]carbonyl}amino)-3-{3′-fluoro-4′-[(trans-4-hydroxycyclohexyl)carbamoyl]biphenyl-4-yl}propanoyl]amino}phenyl)-1H-1,2,4-triazol-5-yl]-2,2,3,3-tetrafluoropropanoic acid hydrochloride] | 2 | 0.17
3 | Cc1cc(C(=O)N(C)C2CCN(C)CC2)ccc1-c1ccc(C[C@H](NC(=O)[C@H]2CC[C@H](CN)CC2)C(=O)Nc2ccc(-c3nnc(C(F)(F)C(F)(F)C(=O)O)[nH]3)cc2)cc1 [Example 113, 3-[5-(4-{[(2S)-2-({[trans-4-(Aminomethyl)cyclohexyl]carbonyl}amino)-3-{2′-methyl-4′-[methyl(1-methylpiperidin-4-yl)carbamoyl]biphenyl-4-yl}propanoyl]amino}phenyl)-4H-1,2,4-triazol-3-yl]-2,2,3,3-tetrafluoropropanoic acid hydrochloride] | 4.9 | 0.07
4 | Cc1cc(C(=O)NCC(=O)N2CCC(N(C)C)CC2)ccc1-c1ccc(C[C@H](NC(=O)[C@H]2CC[C@H](CN)CC2)C(=O)Nc2ccc(-c3nnc(C(F)(F)C(F)(F)C(=O)O)[nH]3)cc2)cc1 [Example 114, 3-{5-[4-({(2S)-2-({[trans-4-(Aminomethyl)cyclohexyl]carbonyl}amino)-3-[4′-{(2-[4-(dimethylamino)piperidin-1-yl]-2-oxoethyl}carbamoyl)-2′-methylbiphenyl-4-yl]propanoyl}-amino)phenyl]-4H-1,2,4-triazol-3-yl}-2,2,3,3-tetrafluoropropanoic acid hydrochloride] | 2.6 | 0.14
5 | Cc1cc(C(=O)NC2CCC3NCCC32)ccc1-c1ccc(C[C@H](NC(=O)[C@H]2CC[C@H](CN)CC2)C(=O)Nc2ccc(-c3nnc(C(F)(F)C(F)(F)C(=O)O)[nH]3)cc2)cc1 (stereo partly drawn) [Example 115, 3-{5-[4-({(2S)-2-({[trans-4-(Aminomethyl)cyclohexyl]carbonyl}amino)-3-[2′-methyl-4′-(octahydrocyclopenta[b]pyrrol-4-ylcarbamoyl)biphenyl-4-yl]propanoyl}amino)phenyl]-4H-1,2,4-triazol-3-yl}-2,2,3,3-tetrafluoropropanoic acid hydrochloride] | 2.3 | 0.09
6 | COc1cc(C(=O)NC2CCN(C)CC2)cc(OC)c1-c1ccc(C[C@H](NC(=O)[C@H]2CC[C@H](CN)CC2)C(=O)Nc2ccc(-c3nn[nH]n3)cc2)cc1 [Example 117, 4′-[(2S)-2-({[trans-4-(Aminomethyl)cyclohexyl]carbonyl}amino)-3-oxo-3-{[4-(2H-tetrazol-5-yl)phenyl]amino}propyl]-2,6-dimethoxy-N-(1-methylpiperidin-4-yl)biphenyl-4-carboxamide hydrochloride] | 8.9 | 0.18
7 | NC[C@H]1CC[C@H](C(=O)N[C@@H](Cc2ccc(-c3cc(F)c(C(=O)NC4CCNCC4)c(F)c3)cc2)C(=O)Nc2ccc(-c3nn[nH]n3)cc2)CC1 [Example 118, hydrochloride] | 2.9 | 0.11
8 | CCOc1cc(C(=O)NC2CCNCC2)ccc1-c1ccc(C[C@H](NC(=O)[C@H]2CC[C@H](CN)CC2)C(=O)Nc2ccc(-c3nn[nH]n3)cc2)cc1 [Example 119, 4′-[(2S)-2-({[trans-4-(Aminomethyl)cyclohexyl]carbonyl}amino)-3-oxo-3-{[4-(2H-tetrazol-5-yl)phenyl]amino}propyl]-2-ethoxy-N-(piperidin-4-yl)biphenyl-4-carboxamide hydrochloride] | 2.1 | 0.08
9 | NC[C@H]1CC[C@H](C(=O)N[C@@H](Cc2ccc(-c3ccc(C(=O)NC4CCNCC4)c(C(F)(F)F)c3)cc2)C(=O)Nc2ccc(-c3nn[nH]n3)cc2)CC1 [Example 120, 4′-[(2S)-2-({[trans-4-(Aminomethyl)cyclohexyl]carbonyl}amino)-3-oxo-3-{[4-(2H-tetrazol-5-yl)phenyl]amino}propyl]-N-(piperidin-4-yl)-3-(trifluoromethyl)biphenyl-4-carboxamide hydrochloride] | 6.7 | 0.14
10 | COc1c(-c2ccc(C[C@H](NC(=O)[C@H]3CC[C@H](CN)CC3)C(=O)Nc3ccc(-c4nn[nH]n4)cc3)cc2)ccc(C(=O)NC2CCNCC2)c1F [Example 121, 4′-[(2S)-2-({[trans-4-(Aminomethyl)cyclohexyl]carbonyl}amino)-3-oxo-3-{[4-(2H-tetrazol-5-yl)phenyl]amino}propyl]-3-fluoro-2-methoxy-N-(piperidin-4-yl)biphenyl-4-carboxamide hydrochloride] | 1 | 0.007
11 | NC[C@H]1CC[C@H](C(=O)N[C@@H](Cc2ccc(-c3ccc(C(=O)NC4CCNCC4)c(Cl)c3)cc2)C(=O)Nc2ccc(-c3nn[nH]n3)cc2)CC1 [Example 122, 4′-[(2S)-2-({[trans-4-(Aminomethyl)cyclohexyl]carbonyl}amino)-3-oxo-3-{[4-(2H-tetrazol-5-yl)phenyl]amino}propyl]-3-chloro-N-(piperidin-4-yl)biphenyl-4-carboxamide hydrochloride] | 5.2 | 0.16
12 | Cc1c(C(=O)NC2CCNCC2)ccc(-c2ccc(C[C@H](NC(=O)[C@H]3CC[C@H](CN)CC3)C(=O)Nc3ccc(-c4nn[nH]n4)cc3)cc2)c1C [Example 123, 4′-[(2S)-2-({[trans-4-(Aminomethyl)cyclohexyl]carbonyl}amino)-3-oxo-3-{[4-(2H-tetrazol-5-yl)phenyl]amino}propyl]-2,3-dimethyl-N-(piperidin-4-yl)biphenyl-4-carboxamide hydrochloride] | 2.5 | 0.02
13 | Cc1c(C(=O)NC2CCNCC2)ccc(-c2ccc(C[C@H](NC(=O)[C@H]3CC[C@H](CN)CC3)C(=O)Nc3ccc(-c4nn[nH]n4)cc3)cc2)c1Cl [Example 124, 4′-[(2S)-2-({[trans-4-(Aminomethyl)cyclohexyl]carbonyl}amino)-3-oxo-3-{[4-(2H-tetrazol-5-yl)phenyl]amino}propyl]-2-chloro-3-methyl-N-(piperidin-4-yl)biphenyl-4-carboxamide hydrochloride] | 1.8 | 0.1
14 | Cc1c(C(=O)NC2CCN(C)CC2)ccc(-c2ccc(C[C@H](NC(=O)[C@H]3CC[C@H](CN)CC3)C(=O)Nc3ccc(-c4nn[nH]n4)cc3)cc2)c1Cl [Example 125, 4′-[(2S)-2-({[trans-4-(Aminomethyl)cyclohexyl]carbonyl}amino)-3-oxo-3-{[4-(2H-tetrazol-5-yl)phenyl]amino}propyl]-2-chloro-3-methyl-N-(1-methylpiperidin-4-yl)biphenyl-4-carboxamide hydrochloride] | 3 | 0.09
15 | Cc1cc(C(=O)NC2CCNCC2)ccc1-c1ccc(C[C@H](NC(=O)[C@H]2CC[C@H](CN)CC2)C(=O)Nc2ccc(-c3nc(C(F)(F)C(F)(F)C(=O)N(C)C)n[nH]3)cc2)cc1 [Example 126, 4′-{(2S)-2-({[trans-4-(Aminomethyl)cyclohexyl]carbonyl}amino)-3-[(4-{3-[3-(dimethylamino)-1,1,2,2-tetrafluoro-3-oxopropyl]-1H-1,2,4-triazol-5-yl}phenyl)amino]-3-oxopropyl}-2-methyl-N-(piperidin-4-yl)biphenyl-4-carboxamide hydrochloride] | 1.6 | 0.14
16 | Cc1cc(C(=O)NC2CCNCC2)ccc1-c1ccc(C[C@H](NC(=O)[C@H]2CC[C@H](CN)CC2)C(=O)Nc2ccc(-c3nc(C(F)(F)C(F)(F)C(N)=O)n[nH]3)cc2)cc1 [Example 127, 4′-[(2S)-2-({[trans-4-(Aminomethyl)cyclohexyl]carbonyl}amino)-3-({4-[3-(3-amino-1,1,2,2-tetrafluoro-3-oxopropyl)-1H-1,2,4-triazol-5-yl]phenyl}amino)-3-oxopropyl]-2-methyl-N-(piperidin-4-yl)biphenyl-4-carboxamide hydrochloride] | 1.5 | 0.14
17 | CNC(=O)C(F)(F)C(F)(F)c1n[nH]c(-c2ccc(NC(=O)[C@H](Cc3ccc(-c4ccc(C(=O)NC5CCNCC5)cc4C)cc3)NC(=O)[C@H]3CC[C@H](CN)CC3)cc2)n1 [Example 128, 4′-{(2S)-2-({[trans-4-(Aminomethyl)cyclohexyl]carbonyl}amino)-3-oxo-3-[(4-{3-[1,1,2,2-tetrafluoro-3-(methylamino)-3-oxopropyl]-1H-1,2,4-triazol-5-yl}phenyl)amino]propyl}-2-methyl-N-(piperidin-4-yl)biphenyl-4-carboxamide hydrochloride] | 1.7 | 0.14

Source: patent US20160272617A1, “SUBSTITUTED PHENYLALANINE DERIVATIVES” (BAYER PHARMA AKTIENGESELLSCHAFT, priority 2013, published 2016)
